Peptide text beside a SMILES is read from it. * marks the point of attachment. Cbz = O=C(OCc1ccccc1)*
Columns and labels:
[1] = system: NF-κB DNA binding activity in MDA-MB-231 cells; experiment: EMSA of NF-κB DNA binding activity in MDA-MB-231 cells; details: parthenolide 1, 2 and 5 μM for 3 h
Description: (§2) Electrophoretic Mobility Shift Assays (EMSAs). […] Cells were collected by trypsinization, washed in phosphate-buffered saline and resuspended in 125 μl of 2 μgs/ml RNase and 300 μl of propidium iodide containing buffer (50 μg/ml propidium iodide, 1 mg/ml sodium citrate, 0.03% NP40). The amount of propidium iodide incorporated was determined by FAScan analysis and the cell cycle distribution was determined using ModFit computer Software. Cell cycle distribution analysis was performed in a single blinded manner. Only diploid cells were considered while calculating the percentage of cells at each phase of cell cycle. • H. Statistical Analysis.

[2] = system: NF-κB DNA binding in HUVECs; experiment: electromobility gel shift assay of NF-κB DNA binding in HUVECs; details: three hours, bFGF 50 ng/mL, VEGF 100 ng/mL, rhuMAb VEGF 10 mg/mL
Description: HUVECs were plated on 100 mm plates and harvested in an exponential growth phase. […] The mixture was then electrophoresed. Specific NF-κB binding to DNA was identified by the presence of a signal seen at autoradiography. The protein-DNA complex was slower to migrate whereas unbound DNA and protein migrated off the gel.

breast cancer = details: cited from earlier work
LxSN11 and IκBαSR cells = experiment: flow cytometry cell cycle analysis, all cell types (LxSN11 and IκBαSR clones of MDA-MB-231); details: 3 nM paclitaxel
Description: (§3) Apoptosis was measured by a histone-ELISA (Roche Diagnostics, Indianapolis, Ind.). […] Histone-DNA complexes in the supernatant were detected by ELISA. For the PARP cleavage assay, 5×10^5 cells were exposed to the indicated drugs for 24 h. […] Cells were collected by trypsinization, washed in phosphate-buffered saline and resuspended in 125 μl of 2 μgs/ml RNase and 300 μl of propidium iodide containing buffer (50 μg/ml propidium iodide, 1 mg/ml sodium citrate, 0.03% NP40). The amount of propidium iodide incorporated was determined by FAScan analysis and the cell cycle distribution was determined using ModFit computer Software. Cell cycle distribution analysis was performed in a single blinded manner. Only diploid cells were considered while calculating the percentage of cells at each phase of cell cycle. • H. Statistical Analysis. In synergy experiments, dose response curves for single agents were generated first.
(§4) Only diploid cells were considered while calculating the percentage of cells in different phases of the cell cycle.

HBL100 cells [3] = experiment: cell cycle distribution analysis, HBL100 cells; type: cell-based; details: HBL100 (data not shown)
Description: (§1) The invention will be further described by reference to the following detailed examples wherein the following materials and methods were employed: • A. Breast Cancer Cell Lines. […] Electrophoretic Mobility Shift Assays (EMSAs). […] Antibodies for supershift assays were purchased from Santa Cruz Biotechnology (CA) or Upstate Biotechnology (NY). • D. Western Blotting. […] IκBα and Mn-SOD antibodies were purchased from Santa Cruz Biotechnology (CA) and Upstate Biotechnology, respectively. • E. Northern Blotting and RNase Protection. […] Twenty μgs of RNA were subjected to RNase protection using the hAPO-5 probe (PharMingen, San Diego, Calif.) as described by the manufacturers. • F. Drug Treatment, Cell Death Assays, Apoptosis Assay and PARP Cleavage. […] Apoptosis was measured by a histone-ELISA (Roche Diagnostics, Indianapolis, Ind.). […] Histone-DNA complexes in the supernatant were detected by ELISA. For the PARP cleavage assay, 5×10^5 cells were exposed to the indicated drugs for 24 h. […] Cells were collected by trypsinization, washed in phosphate-buffered saline and resuspended in 125 μl of 2 μgs/ml RNase and 300 μl of propidium iodide containing buffer (50 μg/ml propidium iodide, 1 mg/ml sodium citrate, 0.03% NP40). The amount of propidium iodide incorporated was determined by FAScan analysis and the cell cycle distribution was determined using ModFit computer Software. […]

LxSN11 cells [4] = experiment: flow cytometry cell cycle distribution, LxSN11 cells; details: paclitaxel increased from 3 nM to 5 nM
Description: as §3, §4

p65−/− fibroblasts = experiment: cell cycle progression of p65−/− fibroblasts; details: for p65−/− G0/G1 / p65−/− S / p65−/− G2/M: 18 h
Description: as §2

IκBαSR10 cells = experiment: cell death ELISA (apoptosis), IκBαSR10 cells; details: 18 h of paclitaxel treatment, culture supernatants
Description: Apoptosis was measured by ELISA.
(§5) To avoid loss of hypodiploid or other damaged cells during processing, the assay was performed with cell culture supernatants.

LxSN11 cells [5] = experiment: cell death ELISA (apoptosis), LxSN11 cells; details: 18 h of paclitaxel treatment, culture supernatants
Description: Apoptosis was measured by ELISA.
as §5

IκBαSR6 cells = experiment: flow cytometry cell cycle distribution, IκBαSR6 cells; details: 5 nM paclitaxel, IκBαSR6, diploid cells only
Description: as §3, §4

MDA-MB-231 cells = experiment: MTS cell survival assay, MDA-MB-231 cells; type: cell-based
Description: as §1

wild type fibroblasts = experiment: cell cycle progression of wild type fibroblasts; details: for Wild type G0/G1 / Wild type G2/M / Wild type S: 18 h
Description: as §2

[6] = system: PARP cleavage in HBL100 cells; experiment: PARP cleavage Western blot, HBL100 cells; type: cell-based; details: HBL100, 24 h, single agents: paclitaxel 1 nM and 5 nM, parthenolide 0.1 μM and 0.5 μM
Description: as §1

HBL100 cells [7] = experiment: MTS cell survival assay, HBL100 cells; type: cell-based; details: Homo sapiens, HBL-100, HBL100, 18 h, single agent, read-out: Half-maximal growth-inhibitory concentration (IC50)

For O=C(O[C@@H]1Cc2c(O)cc(O)cc2O[C@@H]1c1cc(O)c(O)c(O)c1)c1cc(O)c(O)c(O)c1 [epigallocatechin gallate], the “ability to inhibit NF-κB DNA binding activity” value [1] was “Only parthenolide, MG132 and Bay 11-7085 inhibited”.

With COc1cc(/C=C/C(=O)CC(=O)/C=C/c2ccc(O)c(OC)c2)ccc1O [Curcumin] the “ability to inhibit NF-κB DNA binding activity” value [1] was “Only parthenolide, MG132 and Bay 11-7085 inhibited”.

In the case of “rhuMAb VEGF: anti-angiogenic agent provided by Genentech, used in the electromobility gel shift assay”, the “effect on NF-κB DNA binding” value [2] is given as “did not alter NF-κB DNA binding” and the “patients with tumor regression” value (breast cancer) is given as 20%.

For CC(=O)O[C@H]1C(=O)[C@@]2(C)[C@H]([C@H](OC(=O)c3ccccc3)[C@]3(O)C[C@H](OC(=O)[C@H](O)[C@@H](NC(=O)c4ccccc4)c4ccccc4)C(C)=C1C3(C)C)[C@]1(OC(C)=O)CO[C@@H]1C[C@@H]2O [paclitaxel], the hypodiploid cells (LxSN11 and IκBαSR cells) was “approximately 30%”, the G2/M arrest (HBL100 cells [3]) was “arrested at G2/M” and the “cell cycle distribution pattern” value (LxSN11 cells [4]) was “did not alter the cell cycle distribution pattern”. For the same compound, the “effect on cell cycle distribution” value (p65−/− fibroblasts; p65−/− fibroblasts) was “had no effect”, the “p65−/− G0/G1” value (p65−/− fibroblasts; paclitaxel 1 nM) was 47 ± 2 and the “p65−/− S” value (p65−/− fibroblasts; paclitaxel 1 nM) was 53 ± 1. The “p65−/− G0/G1” value (p65−/− fibroblasts; paclitaxel 3 nM) was 39 ± 6, the “p65−/− G2/M” value (p65−/− fibroblasts; paclitaxel 3 nM) was 1 and the “p65−/− S” value (p65−/− fibroblasts; paclitaxel 3 nM) was 61 ± 7. For the same compound, the “p65−/− G0/G1” value (p65−/− fibroblasts; paclitaxel 5 nM) was 47 ± 2, the “p65−/− G2/M” value (p65−/− fibroblasts; paclitaxel 5 nM) was 14 and the “p65−/− S” value (p65−/− fibroblasts; paclitaxel 5 nM) was 46 ± 6. For the same compound, the “p65−/− G0/G1” value (p65−/− fibroblasts; paclitaxel 10 nM) was 47 ± 2, the “p65−/− G2/M” value (p65−/− fibroblasts; paclitaxel 10 nM) was 6 ± 4 and the “p65−/− S” value (p65−/− fibroblasts; paclitaxel 10 nM) was 48 ± 6. For the same compound, the “apoptosis by cell death ELISA” value (IκBαSR10 cells) was “substantial increase in apoptotic death”, the “apoptosis by cell death ELISA” value (LxSN11 cells [5]) was “only a marginal increase in apoptosis” and the “percentage of cells at G2/M” value (IκBαSR6 cells) was 70.37±14.9%. For the same compound, the IC50 (MDA-MB-231 cells; Homo sapiens, MDA-MB-231, 18 h, MTS, single agent) was > 30 nM, the cells killed (MDA-MB-231 cells; MDA-MB-231, 30 nM or higher concentrations of paclitaxel) was 30% and the “Wild type G0/G1” value (wild type fibroblasts; paclitaxel 1 nM) was 68 ± 4. The “Wild type G2/M” value (wild type fibroblasts; paclitaxel 1 nM) was 17 ± 8, the “Wild type S” value (wild type fibroblasts; paclitaxel 1 nM) was 20 ± 4 and the “Wild type G0/G1” value (wild type fibroblasts; paclitaxel 3 nM) was 70 ± 3. For the same compound, the “Wild type G2/M” value (wild type fibroblasts; paclitaxel 3 nM) was 14 ± 5, the “Wild type S” value (wild type fibroblasts; paclitaxel 3 nM) was 16 ± 1 and the “Wild type G0/G1” value (wild type fibroblasts; paclitaxel 5 nM) was 71 ± 3. The “Wild type G2/M” value (wild type fibroblasts; paclitaxel 5 nM) was 17 ± 6, the “Wild type S” value (wild type fibroblasts; paclitaxel 5 nM) was 16 ± 4 and the “Wild type G0/G1” value (wild type fibroblasts; paclitaxel 10 nM) was 73 ± 2. For the same compound, the “Wild type G2/M” value (wild type fibroblasts; paclitaxel 10 nM) was 16 ± 6, the “Wild type S” value (wild type fibroblasts; paclitaxel 10 nM) was 15 ± 2 and the “effect on cell cycle distribution” value (wild type fibroblasts; wild type fibroblasts) was “had no effect”. For the same compound, the PARP cleavage product [6] was “No PARP cleavage product was observed” and the IC50 (HBL100 cells [7]) was 10 nM.

In the case of VEGF, the “effect on NF-κB DNA binding” value [2] is reported as “did not alter baseline NF-κB DNA binding”.

For CC(C)C[C@@H](C=O)NC(=O)[C@H](CC(C)C)NC(=O)[C@H](CC(C)C)NC(=O)OCc1ccccc1 [MG132] (Cbz-Leu-Leu-Leu-aldehyde), the “ability to inhibit NF-κB DNA binding activity” value [1] was “inhibited”.

With CC(=O)CCCCn1c(=O)c2c(ncn2C)n(C)c1=O [pentoxyphylline] the “ability to inhibit NF-κB DNA binding activity” value [1] was “Only parthenolide, MG132 and Bay 11-7085 inhibited”.

For CC(=O)N[C@@H](CS)C(=O)O [N-acetyl cysteine], the “ability to inhibit NF-κB DNA binding activity” value [1] was “Only parthenolide, MG132 and Bay 11-7085 inhibited”.

For “bFGF: basic Fibroblast Growth Factor (R & D Systems) added to stimulate HUVECs”, the “effect on NF-κB DNA binding” value [2] was “induced greater DNA binding than VEGF”.

For CC(C)(C)c1ccc(S(=O)(=O)/C=C/C#N)cc1 [Bay 11-7085], the “ability to inhibit NF-κB DNA binding activity” value [1] was “inhibited”.

— patent US6890946B2, “Use of parthenolide to inhibit cancer” (Indiana University Research and Technology Corporation, priority 1999, dated 2005)
